Consider 1 compound from PMC5078989, “Targeted inhibition of the COP9 signalosome for treatment of cancer” (Nature Communications, 2016).

This assay has as its system SU-DHL-1 xenografts. The experiment in a line: Immunoblotting for Cul1 and Skp2 of tumours excised at end of treatment. Particulars: tumours excised at the end of the study. Format: in vivo, SCID-bg mice. The method, then:
(a) SU-DHL-1 xenografts were grown in SCID-bg mice and dosed by oral administration with either vehicle control or CSN5i-3 at the indicated doses and schedules. Mean tumour volumes are shown±s.e.m. (n=4; P<0.05). (b) Immunoblotting for Cul1 and Skp2 of tumours excised at the end of treatment. (c) Pharmacokinetics of CSN5i-3 post second to last dose. Mean blood concentrations are shown±s.e.m. (n=4). […] Cells from longer compound incubations were also lysed in RIPA buffer, which allows the protein concentration to be determined by BCA Protein Assay Kit (Pierce). Proteins were separated by SDS-PAGE using 4-20% Tris-Glycine Gels (Invitrogen) and subsequently transferred to polyvinylidene difluoride membranes using a Trans-Blot Turbo System (BioRad). […] Cul1 (1:500; #718700), Cul2 (1:250; #7001792), Rbx1 (1:300; #342500) (Invitrogen); Fbxw7 (1:300; # 55290-1-AP), Fbxo22 (1:500; #13606-1-AP) (Proteintech); Cul3 (1:1,000; # […]), CSN5 (1:2,000; #[…]) (Bethyl Laboratories); Fbxo3 (1:300; #AP9195) (Abgent); p21 (1:500; #556431) (BD Biosciences); Fbxo30 (1:500; # H00084085-B01) (Abnova); β-Actin (1:5,000; #A5441) (Sigma-Aldrich); Fbxo7 (1:500; #PA527589) (Pierce). Horseradish peroxidase-conjugated secondary antibodies (1:3,000) were purchased from Promega AG and bound antibody was detected by enhanced chemiluminescence (Pierce). […]

For `CC(C)n1nc(C(F)F)cc1C(=O)Nc1ccc([C@H]2[C@@H](O)CCCc3cncn32)c(-c2ccccc2)c1` [CSN5i-3, 3-(Difluoromethyl)-N-(6-((5S,6S)-6-hydroxy-6,7,8,9-tetrahydro-5H-imidazo[1,5-a]azepin-5-yl)-[1,1′-biphenyl]-3-yl)-1-isopropyl-1H-pyrazole-5-carboxamide], the “Cul1 deneddylation in tumours” value is reported as “inhibited” and the “Skp2 levels in tumours” value is on record as “reduced”.
